Patent publication US5770625A, “Butyryl-tyrosinyl spermine, analogs thereof and methods of preparing and using same” (priority 1994, dated 1998)
Read-outs that look alike come from different tables or passages of the source.

Test system: postsynaptic QUIS-R of locust leg muscle
Assay: Antagonism of neurally-evoked twitch contraction of locust retractor unguis nerve-muscle preparation
Design: species or system Schistocerca gregaria
Settings: for IC50: read-out: IC50
Source text: Electrophysiological studies. The metathoracic retractor unguis nerve-muscle preparation of the locust Schistocerca gregaria was dissected and mounted in a small Perspex bath as described previously (21). The pharmacological activity on the locust nerve muscle preparation, using reduction in neurally evoked twitch amplitude as the measure of activity. Ten fractions were pharmacologically active. […] Further purification of this fraction by reverse-phase HPLC gave four peaks (FIG. 2B), the most pharmacologically was in the major peak (hatched FIG. 2B) . This fraction gave 1.1 mg of toxin as amorphous powder.
The retractor unguis muscle and its nerve were dissected from the metathoracic legs of adult, female locusts (Schistocerca gregaria) and mounted in a Perspex perfusion chamber as described by Usherwood and Machili (21) and Bateman, et al. (14). The muscle was stretched to maximal body length and attached at its tendon or apodeme to a Grass FT 10-strain gauge by a short length of nylon thread. The volume of the muscle bath was about 0.5 ml and its contents could be exchanged within 1 sec. The preparation was perfused continuously at the rate of 5-10 ml min^-1 (except during the application of toxin (see below)) with standard locust saline of the following composition (mM): NaCl, 180; KCl, 10; CaCl2, 2; Hepes, 10; buffered to pH 6.8. The retractor unguis muscle is innervated by two excitatory motoneurons (30) and an inhibitory motoneuron (19,32), but the influence of the latter on the responsiveness of the muscle is slight. Maximal stimulation of the retractor unguis nerve at 0.2 Hz produced a series of twitch contractions of constant amplitude, which were maintained for many hours in good preparations. The test compounds were kept at -20° C. They were dissolved in locust saline on the day of the assay and tested at room temperature. The compounds were applied by pipette to a nerve-muscle preparation such that the contents of the perfusion bath were completely replaced by the test solution. Exposure to the test compound lasted 20 min. Because of the limited availability of some of the compounds, the preparation was not perfused during this period. However, the amplitude of the retractor unguis muscle twitch rarely changed by more than 5-10% over a 20 minute period. During application of the test solutions the stimulation frequency was raised to 0.6 Hz for brief periods to test for stimulus frequency-dependent effects on twitch amplitude (31,37). Dose-inhibition data were obtained by testing the effects, on single retractor unguis muscle preparations, of a range of concentrations of the test compounds. Each concentration of the respective samples was tested at least thee times, and each compound was assayed usually over a 100-fold concentration range (a total of 7-10 concentrations). The standard deviations for twitch inhibition for any given concentration of a toxin rarely exceed 10%. Those compounds for which the deviation was greater than this are identified in Tables 1-7. There was some variation in the potency of PhTX-343 and the test compounds between nerve-muscle preparations. In order to compensate for this, the following procedure was adopted: PhTX-343 was assayed at a variety of concentrations on eight retractor unguis nerve-muscle preparations to give a cumulative dose-inhibition relationship for this toxin. The concentration of PhTX-343 which reduced the twitch contraction by 50% (IC50) was then determined by fitting a curve to the data using the following equation: [formula] where: [T]= toxin concentration, I= % inhibition, Imax =maximum inhibition= 100% and n' represents the Hill slope coefficient. […] The ratio of the actual reduction in twitch amplitude obtained with this single concentration of PhTX-343 and the 50% reduction that was anticipated from the cumulative dose-inhibition relationship for this toxin, was then used as a factor to normalize the data for the test compound. […]

[1] = Table 2, region B modifications, * SD < 20%
[2] = Table 2, relative to PhTX-343 = 1.0
[3] = Table 3, region C modifications
[4] = Table 3, relative to PhTX-343 = 1.0
[5] = Table 1, region A modifications, 20 min exposure, normalized with PhTX-343, ** SD < 30%
[6] = Table 1, relative to PhTX-343 = 1.0
[7] = Table 4, terminal amino group modifications, * SD < 20%
[8] = Table 4, relative to PhTX-343 = 1.0
[9] = Table 6, bis analogues of PhTX-343
[10] = Table 7, mono-acyl spermine analogues

`CCCC(=O)N[C@@H](C)C(=O)NCCCNCCCCNCCCN` [drawing 37] was tested, and the IC50 [1] was 45 µM and the “Relative Potency” value [2] was 0.5.

In the case of `[N-]=[N+]=Nc1ccc(C(=O)N[C@@H](Cc2ccc(O)cc2)C(=O)NCCCNCCCCNCCCN)cc1` [drawing 50], the IC50 [3] is reported as 4.2 µM and the “Relative Potency” value [4] is reported as 5.5.

With `CCCC(=O)N[C@@H](Cc1ccc(O)cc1)C(=O)NCCCCNCCCN` [drawing 24] the IC50 [5] was 39 µM and the “Relative Potency” value [6] was 0.6.

`C/C=C/C=C/C(=O)N[C@@H](Cc1ccc(O)cc1)C(=O)NCCCNCCCCNCCCN` [drawing 45] was tested, and the IC50 [3] was 1.6 µM and the “Relative Potency” value [4] was 14.0.

In the case of `CCCC(=O)N[C@@H](Cc1cc(I)c(O)c(I)c1)C(=O)NCCCNCCCCNCCCN` [drawing 35], the IC50 [1] is reported as 5.3 µM and the “Relative Potency” value [2] is reported as 4.4.

In the case of `CCCC(=O)N[C@@H](Cc1ccc(O)cc1)C(=O)NCCCNCCCCNCCCNC(=O)CN` [Compound 33], the “potency compared with PhTX-343 or other analogues (in words)” value is reported as “potency was reduced”.

In the case of `[N-]=[N+]=Nc1ccc(C(=O)N[C@@H](Cc2ccc(O)cc2)C(=O)NCCCNCCCCNCCCN)cc1` [Compound 26], the “potency compared with PhTX-343 or other analogues (in words)” value is reported as “reasonably active”.

`CCCC(=O)N[C@@H](Cc1ccc(O)cc1)C(=O)NCCCNCCCCNCCCNC(=O)CCCN` [drawing 60] was tested, and the IC50 [7] was 68 µM and the “Relative Potency” value [8] was 0.3.

In the case of `CCCC(=O)N[C@@H](Cc1ccc(O)cc1)C(=O)NCCCCN` [Compound 5, PhTX-4], the “potency compared with PhTX-343 or other analogues (in words)” value is reported as “reduced potency”.

With `CCCC(=O)N[C@@H](Cc1ccc(O)cc1)C(=O)NCCCCNCCCNCCCN` [drawing 22] the IC50 [5] was 18 µM and the “Relative Potency” value [6] was 1.3.

With `CCCC(=O)N[C@@H](Cc1cc(I)c(O)c(I)c1)C(=O)NCCCNCCCCNCCCNC(=O)[C@@H](N)CCCNC(=N)N` [drawing 66] the IC50 (Table 5, modifications to more than one region) was 0.7 µM and the “Relative Potency” value (Table 5, relative to PhTX-343) was 33.

`[N-]=[N+]=Nc1ccc(C(=O)N[C@@H](Cc2cc(I)c(O)c(I)c2)C(=O)NCCCNCCCCNCCCNC(=O)[C@@H](N)CCCCN)cc1` [Compound 41, N- (.rho.-azidobenzamide)-di-iodo-L-tyrosyl-spermine-L-lysine-triamide] was tested, and the “potency compared with PhTX-343 or other analogues (in words)” value was “more potent than the latter”.

With `CCCC(=O)N[C@@H](Cc1ccc(O)cc1)C(=O)NCCCNCCCCNCCCNC(=O)CN` [drawing 59] the IC50 [7] was 100 µM and the “Relative Potency” value [8] was 0.2.

With `CCCCCCCCCC(=O)N[C@@H](Cc1ccc(O)cc1)C(=O)NCCCNCCCCNCCCNC(=O)[C@H](Cc1ccc(O)cc1)NC(=O)CCCCCCCCC` the “IC50 (M)” value [9] was “insol”.

With `CCCCCCCCCC(=O)NCCCNCCCCNCCCN` [drawing 78] the IC50 [10] was 10 µM and the “Relative Potency” value (Table 7, mono-acyl spermine analogues, relative to PhTX-343) was 2.3.

For `CCCC(=O)N[C@@H](Cc1ccc(O)cc1)C(=O)NCCCNCCCCNCCCNC(=O)C(N)CCCCNC(=O)C(N)CCCCN` (stereo partly drawn) [drawing 63], the IC50 [7] was 11 µM and the “Relative Potency” value [8] was 2.1.

For `CCCCCCC(=O)N[C@@H](Cc1ccc(O)cc1)C(=O)NCCCNCCCCNCCCN` [drawing 43], the IC50 [3] was 10 µM and the “Relative Potency” value [4] was 2.7.

In the case of `NCCCNCCCCNCCCNC(=O)[C@H](Cc1ccc(O)cc1)NC(=O)CCCNc1ccc([N+](=O)[O-])cc1[N+](=O)[O-]`, the IC50 [3] is reported as 53 µM and the “Relative Potency” value [4] is reported as 0.4.

For `CCCC(=O)N[C@@H](Cc1ccccc1)C(=O)NCCCNCCCCNCCCN` [Compound 10], the “potency compared with PhTX-343 or other analogues (in words)” value was “increased potency about three-fold”, the IC50 [1] was 6.7 µM and the “Relative Potency” value [2] was 3.4.

In the case of `CCCC(=O)N[C@@H](Cc1ccc(O)cc1)C(=O)NCCCNCCCCNCCCNC(C)=O` [drawing 58], the IC50 [7] is reported as 300 µM and the “Relative Potency” value [8] is reported as 0.08.

In the case of `CCCCC(CNCCCN)CNCCCCNC(=O)[C@H](Cc1ccc(O)cc1)NC(=O)CCC` (stereo partly drawn) [Compound 8, PhTX-(butyl)433], the “potency compared with PhTX-343 or other analogues (in words)” value is reported as “increased potency by almost six-fold”.

With `NCCCNCCCCNCCCNC(=O)[C@H](Cc1ccc(O)cc1)NC(=O)CCCCC1SCC2NC(=O)NC21` (stereo partly drawn) [Compound 30] the “IC50 (M)” value [3] was “insol”.

For `CCCC(=O)N[C@@H](Cc1ccc(O)cc1)C(=O)NCCCNCCCCNCCCN` [drawing 57], the IC50 [7] was 23 µM and the “Relative Potency” value [8] was 1.0.

For `CCCC(=O)N[C@@H](Cc1ccc(O)cc1)C(=O)NCCCNCCCCNCCCNC(=O)C(N)CCCCN` (stereo partly drawn) [Compound 35], the “potency compared with PhTX-343 or other analogues (in words)” value was “increased potency”.

In the case of `[N-]=[N+]=C(C(=O)NCCCC(=O)N[C@@H](Cc1ccc(O)cc1)C(=O)NCCCNCCCCNCCCN)C(F)(F)F` [Compound 27], the “potency compared with PhTX-343 or other analogues (in words)” value is reported as “only weakly active”.

With `CCCC(=O)N[C@@H](Cc1ccc(O)cc1)C(=O)NCCCNCCCCNCCCN` [drawing 31] the IC50 [1] was 23 µM and the “Relative Potency” value [2] was 1.0.

For `CCCC(=O)N[C@@H](Cc1ccc(O)cc1)C(=O)NCCCNCCCNCCCCN` [drawing 23], the IC50 [5] was 15 µM and the “Relative Potency” value [6] was 1.5.

For `CCCC(=O)N[C@@H](Cc1ccc(O)cc1)C(=O)NCCCCNCC(C)CNCCCN` (stereo partly drawn) [Compound 7], the “potency compared with PhTX-343 or other analogues (in words)” value was “did not greatly alter potency”.

For `CCCC(=O)N[C@@H](Cc1cc(I)c(O)c(I)c1)C(=O)NCCCNCCCCNCCCNC(=O)[C@@H](N)CCCCN` [Compound 38, diiodo-PhTX-lysine], the “potency compared with PhTX-343 or other analogues (in words)” value was “more potent than PhTX-343”.

For `CCCC(=O)NCCCNCCCCNCCCNC(=O)CCC` [Compound 50], the “potency compared with PhTX-343 or other analogues (in words)” value was “low potencies”, the IC50 (Table 7, bis-acyl spermine analogues) was 2300 µM and the Relative Potency (Table 7, bis-acyl spermine analogues, relative to PhTX-343) was 0.1.

For `CCCC(=O)N[C@@H](Cc1ccc(O)cc1)C(=O)NCCCNCCCCNCCCNC(=O)[C@@H](N)CCCNC(=N)N` [drawing 62], the IC50 [7] was 6.3 µM and the “Relative Potency” value [8] was 3.7.

In the case of `CCCC(=O)N[C@@H](Cc1ccc(O)cc1)C(=O)NCCCNCCCCNCCCNC(=O)C(N)CCCCN` (stereo partly drawn) [drawing 61], the IC50 [7] is reported as 13 µM and the “Relative Potency” value [8] is reported as 1.8.

In the case of `CCCC(=O)N[C@@H](CC(C)C)C(=O)NCCCNCCCCNCCCN` [Compound 14], the “potency compared with PhTX-343 or other analogues (in words)” value is reported as “unchanged”.

In the case of `CCCC(=O)NCCCNCCCCNCCCN`, the “IC50 (M)” value [10] is reported as “agonist”.

With `CCCC(=O)N[C@@H](Cc1ccc(O)cc1)C(=O)NCCC[N+](C)(C)CCCC[N+](C)(C)CCC[N+](C)(C)C` [drawing 29] the IC50 [5] was 130 µM and the “Relative Potency” value [6] was 0.2.

For `CC(=O)N[C@@H](Cc1ccc(O)cc1)C(=O)NCCCNCCCCNCCCN` [Compound 18], the “potency compared with PhTX-343 or other analogues (in words)” value was “slight but significant reduction in potency”.

For `CCCC(=O)N[C@@H](Cc1c[nH]c2ccccc12)C(=O)NCCCNCCCCNCCCN` [Compound 17], the “increase in potency compared with PhTX-343” value was 10 fold.

With `CCCC(=O)N[C@@H](Cc1c[nH]c2ccccc12)C(=O)NCCCNCCCCNCCCN` [drawing 39] the IC50 [1] was 2.5 µM and the “Relative Potency” value [2] was 9.2.

In the case of `CCCC(=O)N[C@@H](Cc1ccc(OC(C)=O)cc1)C(=O)NCCCNCCCCNCCCN` [drawing 33], the IC50 [1] is reported as 33 µM and the “Relative Potency” value [2] is reported as 0.7.

In the case of `CCCC(=O)N[C@@H](Cc1ccc(OCc2ccccc2)cc1)C(=O)NCCCNCCCCNCCCN` [Compound 12, N-butyryl-O-benzyl-L-tyrosine-spermineamide], the “potency compared with PhTX-343 or other analogues (in words)” value is reported as “unchanged potencies”.

With `O=C(N[C@@H](Cc1ccc(O)cc1)C(=O)NCCCNCCCCNCCCNC(=O)[C@H](Cc1ccc(O)cc1)NC(=O)c1ccccc1)c1ccccc1` the IC50 [9] was 110 µM and the “Relative Potency” value (Table 6, relative to PhTX-343) was 0.2.

In the case of `CCCC(=O)N[C@@H](Cc1ccc(O)cc1)C(=O)NCCCNCCCCNCCCNC(C)=O` [Compound 32], the “potency compared with PhTX-343 or other analogues (in words)” value is reported as “low potency”.
